US9605015B2, “Polyene compound, method for preparing the same, and antifungal drug comprising novel polyene compound as active ingredient” (INHA-INDUSTRY PARTNERSHIP INSTITUTE, priority 2011, dated 2017)
≈ marks a conversion by molar mass, not a printed value.

How the values were obtained:
[1] = Solubility measurement in aqueous Tris-HCl buffer by UV spectrophotometry; type: physicochemical; conditions: aqueous 10 mmol Tris-HCl buffer (pH 7.0)
Excerpt: The polyene region of nystatin is extremely non-polar, which is presumed to promote hydrophobic interactions with sterols within the fungal cell membrane, and orients the polyol component of the molecule toward the internal aqueous channel. However, this low polarity also leads to significant difficulties in administration during human therapy. To investigate the effect of the additional N-acetyl-glucosamine moiety, the present inventors tested the solubility of the purified NPP as well as the nystatin A1 as a reference in an aqueous buffer solution of 10 mmol Tris-HCl (pH 7.0) using spectrophotometric methods.
Particularly, stock solutions of nystatin A1 (Sigma, N6261) standard (1.2 mg/ml) and the purified NPP (12 mg/ml) were prepared in methanol. A 100 μl portion of each stock was freeze-dried under vacuum for 24 h. Either 50 μl (nystatin A1) or 2 μl (NPP) of aqueous 10 mmol Tris-HCl buffer (pH 7.0) was added to the dry polyenes, and the solution was saturated by extensive (>15 min) vortexing. After centrifugation, polyene concentrations in the solution were determined by measuring UV absorbance spectra on SHIMADZU UV-1601 UV/Vis spectrophotometer after appropriate dilution. Specifically, the characteristic tetraene UV peak at 306 nm was used for quantification with experimentally determined extinction coefficients (J. Med. Chem. 49:2431-2439, 2006).

[2] = tested on: Candida albicans ATCC 10231; experiment: Antifungal activity analysis (growth inhibition in microtiter plates); type: cell-based; conditions: Table 5
Protocol: The test organism used for the polyene macrolide bioactivity assays was Candida albicans ATCC 10231, which was grown in 120 μl of YM medium without NaCl (with an inoculum of 1,000 CFU per well) and 30 μl of diluted polyene macrolide samples. The antibiotics were diluted in methanol in series to ensure that concentrations resulting in no inhibition to complete inhibition of the growth of the test organism were used. The test organism cultures with diluted antibiotics were then incubated in 96-well microtiter plates at 30° C. without shaking. After 12, 14, and 16 h, growth was measured based on the optical density at 492 nm using a TECAN Infinite F50 microtiter plate reader. The optical density was plotted against the antibiotic concentration, and the MIC at which 50% of isolates are inhibited (MIC50) was estimated from the regression curve at 50% growth inhibition.

[3] = tested on: erythrocytes in defibrinated horse blood; experiment: In vitro measurement of hemolytic activity; type: cell-based; conditions: 37° C., 30 min
Protocol: The hemolytic assay for the polyene macrolides was performed by monitoring the ability of the macrolides to cause lysis of erythrocytes in defibrinated horse blood (Gene. 111:61-68, 1992). Samples (0.1 ml) with different polyene macrolide concentrations (10 to 500 μg/ml in DMSO) were prepared from stock solutions of the purified polyenes (5 mg/ml in DMSO). The diluted samples were mixed with 0.9 ml horse blood-phosphate-buffered saline (PBS), which consisted of PBS buffer containing 2.5% defibrinated horse blood (KisanBiotech, Korea), and incubated in a water bath at 37° C. Samples were collected at 30 min, centrifuged at 5,000 rpm for 5 min, and the OD540 was measured. One hundred percent hemolysis was defined as the OD540 value obtained from a suspension of 2.5% horse blood in distilled water, and 0.9 ml horse blood-PBS with the addition of 0.1 ml DMSO was used as a blank. Each experiment was performed in triplicate, and samples containing nystatin were used as standards.

C[C@@H]1[C@H](O)[C@@H](C)/C=C/C=C/CC/C=C/C=C/C=C/C=C/C(O[C@H]2O[C@H](C)[C@@H](O)[C@H](N)[C@@H]2O)CC2O[C@](O)(CC(O)C(O)CCC(O)CC(O)CC(O)CC(=O)O[C@H]1C)CC(O)C2C(=O)O (some centres unmarked) [nystatin, nystatin A1]
solubility ([1]; Table 5): 0.11 ± 0.03 mg/mL (≈ 119 µM) | solubility [1]: 0.11 mg/mL (≈ 119 µM) | Antifungal activity (IC50, μg/ml) [2]: 0.43 ± 0.02 µg/mL | HC50 ([3]; 2.5% defibrinated horse blood in PBS): 33 µg/mL | Hemolytic activity (HC50, μg/ml) ([3]; Table 5, horse blood): 33 ± 0.54 µg/mL
